This is an account of results in ChEMBL document CHEMBL1165867, “Synthesis, structure and structure-activity relationship analysis of caffeic acid amides as potential antimicrobials” (2010).

Structures are written as SMILES. In brackets after ≈: the same amount, converted by molar mass.

What all share (assay): microbe, parasite or virus in culture
What all share (assay type): functional

One assay deals with Pseudomonas fluorescens. The note with it: ATCC 13525, 24 h.
The subject of a further assay is Staphylococcus aureus. The note with it: ATCC 6538, 24 h.
A further assay deals with Candida albicans. The note with it: ATCC 10231, 48 h.
Another assay concerns Bacillus subtilis. The note with it: ATCC 6633, 24 h.
A further assay concerns Trichophyton rubrum. The note with it: ATCC 10218, 48 h.
The test system of a further assay is Aspergillus niger. The note with it: ATCC 16404, 48 h.
A further assay concerns Escherichia coli. The note with it: ATCC 35218, 24 h.

Description for Aspergillus niger: Antifungal activity against Aspergillus niger ATCC 16404 after 48 hrs by MTT assay
Description for Bacillus subtilis: Antibacterial activity against Bacillus subtilis ATCC 6633 after 24 hrs by MTT assay
Description for Candida albicans: Antifungal activity against Candida albicans ATCC 10231 after 48 hrs by MTT assay
Description for Escherichia coli: Antibacterial activity against Escherichia coli ATCC 35218 after 24 hrs by MTT assay
Description for Pseudomonas fluorescens: Antibacterial activity against Pseudomonas fluorescens ATCC 13525 after 24 hrs by MTT assay
Description for Staphylococcus aureus: Antibacterial activity against Staphylococcus aureus ATCC 6538 after 24 hrs by MTT assay
Description for Trichophyton rubrum: Antifungal activity against Trichophyton rubrum ATCC 10218 after 48 hrs by MTT assay

With `O=C(/C=C/c1ccc(O)c(O)c1)Nc1ccccc1Br`, the MIC against Pseudomonas fluorescens is 42.2 µg/mL (≈ 126 µM); against Staphylococcus aureus it was more than 50 µg/mL; in the assay with Candida albicans, 27.5 µg/mL (≈ 82.3 µM); in the assay with Bacillus subtilis it was 49.5 µg/mL (≈ 148 µM).
In the case of `O=C(O)/C=C/c1ccc(O)cc1` [COUMARIC ACID], the MIC with Pseudomonas fluorescens, in the assay with Staphylococcus aureus, in the assay on Candida albicans and in the assay with Bacillus subtilis was more than 50 µg/mL throughout.
Regarding `O=C(O)/C=C/c1ccc(O)c(O)c1` [CAFFEIC ACID], the MIC against Pseudomonas fluorescens, against Staphylococcus aureus, in the assay on Candida albicans and against Bacillus subtilis was more than 50 µg/mL throughout.
Turning to `O=C(/C=C/c1ccc(O)c(O)c1)Nc1ccccc1F`, the MIC in the assay on Pseudomonas fluorescens is more than 50 µg/mL; in the assay on Staphylococcus aureus, more than 50 µg/mL; against Candida albicans, 33.3 µg/mL (≈ 122 µM); with Bacillus subtilis it was 50 µg/mL (≈ 183 µM).
With `Cc1cccc(NC(=O)/C=C/c2ccc(O)c(O)c2)c1`, the MIC against Pseudomonas fluorescens was 38.8 µg/mL (≈ 144 µM); against Staphylococcus aureus it was 45.6 µg/mL (≈ 169 µM); with Candida albicans, more than 50 µg/mL; in the assay on Bacillus subtilis, 40.2 µg/mL (≈ 149 µM).
For `CN(C(=O)/C=C/c1ccc(O)c(O)c1)c1ccccc1` the same measures were more than 50 µg/mL, more than 50 µg/mL, more than 50 µg/mL and more than 50 µg/mL.
As to `Cc1ccccc1NC(=O)/C=C/c1ccc(O)c(O)c1`, the MIC against Pseudomonas fluorescens was 42.5 µg/mL (≈ 158 µM); in the assay on Staphylococcus aureus, more than 50 µg/mL; against Candida albicans it was more than 50 µg/mL; against Bacillus subtilis, 35 µg/mL (≈ 130 µM).
In the case of `O=C(/C=C/c1ccc(O)c(O)c1)Nc1cccc(Br)c1`, the MIC against Pseudomonas fluorescens was more than 50 µg/mL; against Staphylococcus aureus, more than 50 µg/mL; against Candida albicans, more than 50 µg/mL; against Bacillus subtilis, 50 µg/mL (≈ 150 µM).
As for `CC1(C)S[C@@H]2[C@H](NC(=O)Cc3ccccc3)C(=O)N2[C@H]1C(=O)O` [PENICILLIN G], the MIC against Staphylococcus aureus is 1.39 µg/mL (≈ 4.16 µM); in the assay with Bacillus subtilis it was 0.78 µg/mL (≈ 2.33 µM).
Turning to `COc1ccc(NC(=O)/C=C/c2ccc(O)c(O)c2)cc1`, the MIC against Trichophyton rubrum was more than 50 µg/mL; with Pseudomonas fluorescens it was more than 50 µg/mL; with Staphylococcus aureus, 50 µg/mL (≈ 175 µM); against Candida albicans, 42.8 µg/mL (≈ 150 µM); in the assay on Aspergillus niger it was more than 50 µg/mL; in the assay on Bacillus subtilis, 3.12 µg/mL (≈ 10.9 µM). The compound also yielded an MIC in the assay with Escherichia coli of more than 50 µg/mL.
On to `O=C(/C=C/c1ccc(O)c(O)c1)Nc1ccccc1[N+](=O)[O-]`, for which the MIC with Pseudomonas fluorescens, against Staphylococcus aureus, in the assay on Candida albicans and against Bacillus subtilis was more than 50 µg/mL in each case.
Turning to `CCNC(=O)/C=C/c1ccc(O)c(O)c1`, the MIC in the assay with Pseudomonas fluorescens, against Staphylococcus aureus, in the assay with Candida albicans and in the assay on Bacillus subtilis was more than 50 µg/mL each time.
As to `O=C(/C=C/c1ccc(O)c(O)c1)Nc1ccc([N+](=O)[O-])cc1`, the MIC against Trichophyton rubrum was more than 50 µg/mL; in the assay on Pseudomonas fluorescens, more than 50 µg/mL; against Staphylococcus aureus it was more than 50 µg/mL; with Candida albicans it was 49.4 µg/mL (≈ 165 µM); against Aspergillus niger, more than 50 µg/mL; against Bacillus subtilis, 15.5 µg/mL (≈ 51.6 µM). In the assay with Escherichia coli, this compound came in with an MIC of more than 50 µg/mL.
With `O=C(/C=C/c1ccc(O)c(O)c1)Nc1cccc(Cl)c1`, the MIC in the assay on Pseudomonas fluorescens is more than 50 µg/mL; with Staphylococcus aureus, 49.2 µg/mL (≈ 170 µM); in the assay with Candida albicans it was more than 50 µg/mL; with Bacillus subtilis, 50 µg/mL (≈ 173 µM).
As for `O=C(/C=C/c1ccc(O)c(O)c1)Nc1cccc([N+](=O)[O-])c1`, the MIC with Pseudomonas fluorescens, in the assay with Staphylococcus aureus, with Candida albicans and in the assay with Bacillus subtilis was more than 50 µg/mL in each case.
Turning to `O=C(/C=C/c1ccc(O)c(O)c1)Nc1ccccc1`, the MIC in the assay on Pseudomonas fluorescens is more than 50 µg/mL; in the assay on Staphylococcus aureus, 41.5 µg/mL (≈ 163 µM); against Candida albicans, 50 µg/mL (≈ 196 µM); against Bacillus subtilis, 28.4 µg/mL (≈ 111 µM).
For `CCNC(=O)/C=C/c1ccc(O)cc1`, the MIC against Pseudomonas fluorescens is more than 50 µg/mL; with Staphylococcus aureus it was 45.4 µg/mL (≈ 237 µM); against Candida albicans, 50 µg/mL (≈ 261 µM); against Bacillus subtilis, more than 50 µg/mL.
For `O=C(/C=C/c1ccc(O)c(O)c1)Nc1cccc(F)c1`, the MIC is more than 50 µg/mL against Pseudomonas fluorescens, more than 50 µg/mL in the assay with Staphylococcus aureus, more than 50 µg/mL with Candida albicans and 46.7 µg/mL (≈ 171 µM) against Bacillus subtilis.
Regarding `O=C(/C=C/c1ccc(O)c(O)c1)Nc1ccc(F)cc1`, the MIC in the assay on Trichophyton rubrum was more than 50 µg/mL; in the assay with Pseudomonas fluorescens, more than 50 µg/mL; in the assay with Staphylococcus aureus, more than 50 µg/mL; in the assay with Candida albicans, more than 50 µg/mL; against Aspergillus niger, more than 50 µg/mL; in the assay with Bacillus subtilis, 7.95 µg/mL (≈ 29.1 µM). The same compound showed an MIC in the assay on Escherichia coli of more than 50 µg/mL.
`O=C(/C=C/c1ccc(O)c(O)c1)Nc1ccc(Br)cc1`: the MIC in the assay on Trichophyton rubrum is more than 50 µg/mL; against Pseudomonas fluorescens it was 50 µg/mL (≈ 150 µM); with Staphylococcus aureus, more than 50 µg/mL; against Candida albicans it was more than 50 µg/mL; against Aspergillus niger, more than 50 µg/mL; with Bacillus subtilis, 3.89 µg/mL (≈ 11.6 µM). Besides, the MIC against Escherichia coli is more than 50 µg/mL.
Take `O=C(/C=C/c1ccc(O)c(O)c1)N(c1ccccc1)c1ccccc1`: the MIC against Pseudomonas fluorescens, against Staphylococcus aureus, against Candida albicans and against Bacillus subtilis was more than 50 µg/mL throughout.
In the case of `NC[C@H]1O[C@H](O[C@H]2[C@H](O)[C@@H](O[C@H]3O[C@H](CO)[C@@H](O)[C@H](N)[C@H]3O)[C@H](N)C[C@@H]2N)[C@H](O)[C@@H](O)[C@@H]1O` [KANAMYCIN], the figures for the MIC in the assay on Pseudomonas fluorescens, against Staphylococcus aureus and in the assay on Bacillus subtilis were 5.08 µg/mL (≈ 10.5 µM), 1.28 µg/mL (≈ 2.64 µM) and 0.39 µg/mL (≈ 0.805 µM), respectively.
Consider `O=C(/C=C/c1ccc(O)c(O)c1)Nc1ccccc1Cl`, for which the MIC is 41.2 µg/mL (≈ 142 µM) in the assay with Pseudomonas fluorescens, more than 50 µg/mL in the assay on Staphylococcus aureus, 42.8 µg/mL (≈ 148 µM) against Candida albicans and 45.8 µg/mL (≈ 158 µM) in the assay with Bacillus subtilis.
For `CCN(CC)C(=O)/C=C/c1ccc(O)c(O)c1` the same measures were more than 50 µg/mL, more than 50 µg/mL, more than 50 µg/mL and more than 50 µg/mL.
Take `COc1ccccc1NC(=O)/C=C/c1ccc(O)c(O)c1`: the MIC in the assay on Pseudomonas fluorescens is 13.2 µg/mL (≈ 46.3 µM); against Staphylococcus aureus, 47.4 µg/mL (≈ 166 µM); in the assay with Candida albicans it was more than 50 µg/mL; in the assay on Bacillus subtilis, 39.8 µg/mL (≈ 140 µM).
For the compound `COc1cccc(NC(=O)/C=C/c2ccc(O)c(O)c2)c1`, the MIC is more than 50 µg/mL with Pseudomonas fluorescens, more than 50 µg/mL against Staphylococcus aureus, 44.7 µg/mL (≈ 157 µM) against Candida albicans and 50 µg/mL (≈ 175 µM) with Bacillus subtilis.
For the compound `Cc1ccc(NC(=O)/C=C/c2ccc(O)c(O)c2)cc1`, the MIC is more than 50 µg/mL against Trichophyton rubrum; 42.2 µg/mL (≈ 157 µM) in the assay on Pseudomonas fluorescens; more than 50 µg/mL in the assay with Staphylococcus aureus; more than 50 µg/mL in the assay with Candida albicans; more than 50 µg/mL with Aspergillus niger; 1.18 µg/mL (≈ 4.38 µM) in the assay on Bacillus subtilis. The compound also had an MIC against Escherichia coli of more than 50 µg/mL.
Take `O=C(/C=C/c1ccc(O)c(O)c1)Nc1ccc(Cl)cc1`: the MIC is more than 50 µg/mL against Trichophyton rubrum; 50 µg/mL (≈ 173 µM) against Pseudomonas fluorescens; 46.8 µg/mL (≈ 162 µM) against Staphylococcus aureus; more than 50 µg/mL in the assay with Candida albicans; more than 50 µg/mL with Aspergillus niger; 6.25 µg/mL (≈ 21.6 µM) in the assay with Bacillus subtilis. This compound yielded an MIC in the assay with Escherichia coli of more than 50 µg/mL.
